These results are taken from article PMC9293909 (Nature Communications, 2022).

Molecules are shown by their SMILES. Several values for one entry are separate records, joined by “and”; a condition that tells them apart may be missing. Equal values may be shown once. Read-outs that look alike come from different tables or passages of the source.

For data set [1], the target named is β-arrestin2 recruitment to hA1R (Homo sapiens, UniProt P30542). In words: BRET β-arrestin2 recruitment to A1R, HEK 293T. The class given is cell-based. For orientation: In BRET a luciferase serves as donor, and the signal depends on an acceptor being close.
Data set [2] has as its system heart rate and mean arterial blood pressure. The data set is described as follows: Urethane-anaesthetised rat, heart rate and arterial blood pressure.
Description: Anaesthesia was induced in adult male Sprague–Dawley rats (230-330 g) with isofluorane (2–4%; Piramal Healthcare). The femoral vein was catheterised for drug delivery. Anaesthesia was maintained with urethane (1.2–1.7 g kg^−1; Sigma) in sterile saline delivered via the femoral vein catheter. […] The trachea was cannulated and the femoral artery catheterised, and both were connected to pressure transducers (Digitimer) to record respiratory airflow and arterial blood pressure, respectively. Blood pressure and airflow signals were amplified using the NeuroLog system (Digitimer) connected to a micro1401 interface and acquired on a computer using Spike2 software (v7.08a; Cambridge Electronic Design). […] Airflow measurements were used to calculate: tidal volume (VT; mL; pressure sensors were calibrated with a 3 mL syringe), and respiratory frequency (f; breaths min^−1; BrPM). Minute ventilation (VE; mL min^−1) was calculated as f × VT.
Cardiovascular and respiratory parameters were allowed to stabilise before experiments began. A1R agonists were administered by intravenous (IV) injection and the changes in HR, MAP, f, VT, and VE were measured. […] All injections were administered IV as a 350 µl·kg^-1 bolus.
Data set [3] addresses T1, hA2AR (Homo sapiens, UniProt P29274).
T1 construct: expressed in transfected cells; host or cells: CHO-K1
In words: Binding affinity at hA2AR (Supplementary Table 1). Conditions: tracer not given (footnote d); read-out: pKi hA2AR (converted).

Data set [4] has as its target T1, hA2AR. In words: cAMP accumulation at hA2AR. In kind it is cell-based. As to the method: CHO cell lines expressing ARs of interest (including mutants of the hA1R) were routinely cultured in Ham’s F-12 nutrient mix supplemented with 10% foetal bovine serum (FBS), at 37 °C with 5% CO2, in a humidified atmosphere.
A general note: cAMP levels reflect the balance of adenylyl cyclase and phosphodiesterase activity.

A further data set addresses T2, hA1R:Gi1 (Homo sapiens, UniProt P30542).
T2 construct: host or cells: CHO-K1-hA1R (made in-house), PTX-treated
The data set is described as follows: cAMP inhibition in PTX-treated CHO-K1-hA1R cells with PTX-insensitive Gi1. In kind it is cell-based. On the procedure:
Cells were then incubated for 24 h before addition of 100 ng/ml PTX, to inhibit activity of endogenous Gαi/o, and then incubated for a further 16-18 h. Transfected cells were then assayed as per cAMP inhibition experiments, but co-stimulated with agonist and 100 nM forskolin.

Data set [5] concerns the target T3, hA1R R291^7.56 alanine mutant (Homo sapiens, UniProt P30542, R291A).
T3 construct: expressed in transfected cells
The data set is described as follows: cAMP inhibition, Flp-In-CHO hA1R R291A. The class given is cell-based. Conditions: Fig4j. The source says:
(§1) Cell lines were maintained using standard subculturing routines as guided by the European Collection of Cell Culture (ECACC) and checked annually for mycoplasma infection using an EZ-PCR mycoplasma test kit from Biological Industries (Kibbutz Beit-Haemek, Israel). To investigate the signalling properties of the rat A3R (rA3R) and mutants of the human A1R (hA1R), stable cell lines were generated using Flp-In-CHO cells (ThermoFisher - R75807). Untagged hA1R from sigNanoLuciferase (Nluc)-A1R in pcDNA3.1+ and untagged rA3R from sigNluc-A3R in pcDNA3.1 + (both gifted by Dr Steve Briddon (University of Nottingham)) were cloned into the pcDNA5/FRT expression vector (Thermo Fisher Scientific). Mutations within the hA1R were made using the QuikChange Lightening Site-Directed Mutagenesis Kit (Agilent Technologies) in accordance with the manufacturer’s instructions. Constructs for generating Goa/b interfering and scrambled peptides were generated by PCR and cloned into the BamHI/HindIII site of pcDNA3.1- as described in Gilchrist et al.[60],. Prior to the initiator codon a Kozak sequence was included for enhanced translation. The peptide sequences used were: for Goa […], for Gob […], and for the scrambled peptide […] was used. Constructs were sequenced to confirm fidelity. […]

Data set [6] addresses T4, hA1R I292^8.47 alanine mutant (Homo sapiens, UniProt P30542, I292A).
T4 construct: expressed in transfected cells
The data set is described as follows: cAMP inhibition, Flp-In-CHO hA1R I292A. In kind it is cell-based. The following applies: Fig4j; read-out: cAMP inhibition potency, 292A, Average (converted).
Description: as §1

Data set [7] has as its target T5, hA1R Q293^8.48 alanine mutant (Homo sapiens, UniProt P30542, Q293A).
T5 construct: expressed in transfected cells
In words: cAMP inhibition, Flp-In-CHO hA1R Q293A. In kind it is cell-based. The following applies: Fig4j.
Description: as §1

Data set [8] has as its target T6, hA1R K294^8.49 alanine mutant (Homo sapiens, UniProt P30542, K294A).
T6 construct: expressed in transfected cells
The data set is described as follows: cAMP inhibition, Flp-In-CHO hA1R K294A. Conditions: Fig4j; read-out: cAMP inhibition potency, 294A, Average (converted). In kind it is cell-based.
Description: as §1

Setting [9] is: Fig6g, average, n 4, CPA alone or CPA + BnOCPA.
Where [10] appears, read: Fig6g, individual animal, CPA alone or CPA + BnOCPA.

T3 sequence (P30542 whole entry R291A): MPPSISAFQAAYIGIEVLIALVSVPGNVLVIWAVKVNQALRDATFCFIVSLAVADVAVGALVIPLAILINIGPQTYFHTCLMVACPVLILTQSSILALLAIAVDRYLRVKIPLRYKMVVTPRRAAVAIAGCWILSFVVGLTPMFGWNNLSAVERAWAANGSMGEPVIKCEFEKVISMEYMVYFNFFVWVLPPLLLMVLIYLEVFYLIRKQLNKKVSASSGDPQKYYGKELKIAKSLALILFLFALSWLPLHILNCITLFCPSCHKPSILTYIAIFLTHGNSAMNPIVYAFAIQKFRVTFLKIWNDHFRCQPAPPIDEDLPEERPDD
T1 sequence (P29274 whole entry): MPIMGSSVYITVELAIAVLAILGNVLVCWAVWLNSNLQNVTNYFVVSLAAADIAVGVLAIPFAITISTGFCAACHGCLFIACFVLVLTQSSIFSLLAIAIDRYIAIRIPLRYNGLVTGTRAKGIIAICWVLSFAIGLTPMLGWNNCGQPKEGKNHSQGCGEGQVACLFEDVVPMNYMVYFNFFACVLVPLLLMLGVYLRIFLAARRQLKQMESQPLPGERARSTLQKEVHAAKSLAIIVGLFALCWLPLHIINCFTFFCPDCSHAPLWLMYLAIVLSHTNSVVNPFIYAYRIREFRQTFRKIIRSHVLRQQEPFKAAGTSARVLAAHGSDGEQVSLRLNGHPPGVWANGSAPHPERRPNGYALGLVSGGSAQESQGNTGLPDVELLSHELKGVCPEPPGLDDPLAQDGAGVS
T5 sequence (P30542 whole entry Q293A): as the sequence (P30542 whole entry R291A) above, with A291R, Q293A counted along it
T2 sequence (P30542 whole entry): as the sequence (P30542 whole entry R291A) above, with A291R counted along it
T4 sequence (P30542 whole entry I292A): as the sequence (P30542 whole entry R291A) above, with A291R, I292A counted along it
T6 sequence (P30542 whole entry K294A): as the sequence (P30542 whole entry R291A) above, with A291R, K294A counted along it
Sequence of β-arrestin2 recruitment to hA1R (P30542 whole entry): as the sequence (P30542 whole entry R291A) above, with A291R counted along it

As for `OC[C@H]1O[C@@H](n2cnc3c(NC4CCCC4)ncnc32)[C@H](O)[C@@H]1O` [CPA, N^6-Cyclopentyladenosine], in data set [1], the “β-arrestin2 recruitment at the A1R” value was “no β-arrestin recruitment”. Besides, the “reduction of HR” value in data set [2] (CPA 6 µg kg^−1 IV) is ~ 50%. Further, the MAP after injection in data set [2] (CPA 6 µg kg^−1 IV, from 83 ± 8 mm Hg) stood at 51 ± 5 mm Hg. This compound also yielded an HR after injection in data set [2] (CPA 6 µg kg^−1 IV, from 408 ± 17 BPM) of 207 ± 29 BPM. Further, the “effect on HR (difference from previous baseline)” value in [2] (CPA 6 µg kg^−1 alone) was determined as 179 ± 15 bpm. Further, in data set [2] (Fig5c, individual rat), the heart rate was 165 and 289 and 168 and 205. Besides, in [2] (Fig5c, n 4), the “heart rate, Average” value is reported as 207. Also, in [2] (setting [9]), the “HR, Average” value is -179 and the “MAP, Average” value is listed as -55. For the same compound, in [2] (setting [10]), the HR was -182.8 and -157 and -220 and -158; the MAP was -64 and -74 and -31 and -50. For the same compound, the “mean arterial blood pressure” value in data set [2] (Fig5d, individual rat) is 49 and 64 and 40. For the same compound, the “mean arterial blood pressure, Average” value in [2] (Fig5d, n 4) turned out to be 51.
Broadly, the Emax is the greatest response seen or fitted, relative to the assay's reference. As for `OC[C@H]1O[C@@H](n2cnc3c(N[C@@H]4CCC[C@H]4O)ncnc32)[C@H](O)[C@@H]1O` [HOCPA, (2 R,3 R,4 S,5 R)−2-(6-{[(1 R,2 R)−2-hydroxycyclopentyl]amino}−9H-purin-9-yl)−5-(hydroxymethyl)oxolane-3,4-diol], the Ki on hA2AR [3] was > 100 µM. For the same compound, the EC50 at hA2AR [4] (half-maximal response, cAMP, read-out: pEC50 hA2AR (converted)) was 3.24 µM; at hA1R:Gi1 (read-out: pEC50 Gi1 (converted)) it was 8.91 nM. The “Range hA2AR” value on hA2AR [4] (range of response as percentage of response to 10 μM forskolin) turned out to be 41.66 ± 6.1%. Further, the Emax at hA1R:Gi1 (inhibition of forskolin-stimulated cAMP) is -37.1%. Further, the IC50 is 1.66 nM and 3.36 nM and 11.1 nM and 7.67 nM and 1.61 nM and 5.5 nM and 3.5 nM in data set [5] (individual replicate, read-out: cAMP inhibition potency, 291A (converted)); 3.98 nM in data set [5] (read-out: cAMP inhibition potency, 291A, Average (converted)); 4.79 nM in data set [6]; 3.61 nM and 7.23 nM and 5 nM and 4.17 nM and 2.86 nM and 3.71 nM in data set [7] (individual replicate, read-out: cAMP inhibition potency, 293A (converted)); 4.27 nM in [7] (read-out: cAMP inhibition potency, 293A, Average (converted)); 4.57 nM in [8].
